The record followed here is patent US8044079B2, “Substituted oxindole derivatives, medicaments containing said derivatives and use thereof” (Abbott GmbH & Co. KG, priority 2005, dated 2011).

The test concerns the target T1, human vasopressin V1b receptor (Homo sapiens, UniProt P47901).
T1 construct: expressed in transfected cells; host or cells: CHO-K1 (cell line hV1b_3H2_CHO), membrane preparation
T1 sequence (P47901 1-424): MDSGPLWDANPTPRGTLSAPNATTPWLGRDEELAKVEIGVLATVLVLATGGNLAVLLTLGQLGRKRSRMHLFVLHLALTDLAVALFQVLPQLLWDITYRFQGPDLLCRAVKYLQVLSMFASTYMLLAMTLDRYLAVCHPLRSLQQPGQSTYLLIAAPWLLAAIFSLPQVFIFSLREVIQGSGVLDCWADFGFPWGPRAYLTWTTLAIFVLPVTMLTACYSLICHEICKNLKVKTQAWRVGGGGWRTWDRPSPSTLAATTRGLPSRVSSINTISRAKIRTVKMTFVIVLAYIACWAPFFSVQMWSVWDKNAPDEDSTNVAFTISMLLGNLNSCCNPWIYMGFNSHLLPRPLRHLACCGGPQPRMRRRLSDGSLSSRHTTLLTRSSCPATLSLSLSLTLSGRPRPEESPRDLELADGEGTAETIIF
In words: Vasopressin V1b receptor binding test. The following applies: membranes of CHO-K1 cells with human V1b receptor, displacement of 1.5 nM 3H-AVP; for compounds with more than one stereogenic center the diastereomer with greater affinity. The protocol:
Vasopressin V1b Receptor Binding Test:
The test substances were dissolved at a concentration of 10^−2 M in DMSO, and were further diluted to 5×10^−4 M to 5×10^−9 M in DMSO. This DMSO predilution series was diluted 1:10 with test buffer. In the test assay the substance concentration was further diluted to 1:5 (2% DMSO in the assay).
The membrane pellet was homogenized again as described and centrifuged, and was then taken up in 50 mM tris-HCl at pH 7.4, homogenized, and frozen in aliquots at −190° C. and stored in liquid nitrogen.
The incubation buffer was 50 mM tris, 10 mM MgCl2, and 0.1% BSA at pH 7.4. […] The nonspecific binding was determined using 1 μM AVP (Bachem #H1780). All determinations were performed in triplicate. After incubation (60 minutes at room temperature), the free radioligand was filtered off by vacuum filtration (Skatron 7000 cell harvester) through Wathman GF/B fiberglass filter mats, and the filters were transferred to scintillation vessels. The liquid scintillation measurement was conducted in a Model 2000 or 2200CA TriCarb unit (Packard). The measured cpm was converted to dpm using a standard quench series.
The binding parameters were calculated by nonlinear regression in SAS.
The affinities of the compounds according to the invention for human vasopressin receptor V1b were measured according to the above test, and the affinity constants (Ki) were determined.

The compound `COc1ccc(S(=O)(=O)N2C(=O)C(c3cc(CN4CCN(C)CC4)ccc3OC)(N3C[C@H](OC(C)(C)C)C[C@H]3c3ncco3)c3cc(Cl)ccc32)cc1` (stereo partly drawn) [Example 214, 3-((2S,4R)-4-tert-butoxy-2-oxazol-2-yl-pyrrolidin-1-yl)-5-chloro-1-(4-methoxybenzenesulfonyl)-3-[2-methoxy-5-(4-methylpiperazin-1-ylmethyl)phenyl]-1,3-dihydroindol-2-one] showed a Ki of under 10 nM.

Take `COc1ccc(S(=O)(=O)N2C(=O)C(c3ccc(CN(C)C)cc3OC)(N3CCC[C@H]3c3ncco3)c3cc(Cl)ccc32)cc1` (stereo partly drawn) [Example 17, 5-Chloro-3-(4-dimethylaminomethyl-2-methoxyphenyl)-1-(4-methoxybenzenesulfonyl)-3-((S)-2-oxazol-2-yl-pyrrolidin-1-yl)-1,3-dihydroindol-2-one]: the Ki is under 10 nM.

As for `COc1ccc(S(=O)(=O)N2C(=O)C(c3cc(CN4CCNCC4)ccc3OC)(N3C[C@H](O)C[C@H]3c3ncco3)c3cc(Cl)ccc32)cc1` (stereo partly drawn) [Example 113, 5-Chloro-3-((2S,4R)-4-hydroxy-2-oxazol-2-yl-pyrrolidin-1-yl)-1-(4-methoxybenzenesulfonyl)-3-(2-methoxy-5-(piperazin-1-ylmethyl)phenyl)-1,3-dihydroindol-2-one], the inhibition constant Ki is under 10 nM.

The compound `COc1ccc(S(=O)(=O)N2C(=O)C(c3cc(CNCCO)ccc3OC)(N3CCC[C@H]3c3ncco3)c3ccc(Cl)cc32)cc1` (stereo partly drawn) [Example 93, 6-Chloro-3-{5-[(2-hydroxyethylamino)methyl]-2-methoxyphenyl}-1-(4-methoxybenzenesulfonyl)-3-((S)-2-oxazol-2-yl-pyrrolidin-1-yl)-1,3-dihydroindol-2-one] had a Ki of 100 to 1000 nM.

Regarding `COc1ccc(S(=O)(=O)N2C(=O)C(c3cc(CN4CCC4)ccc3OC)(N3CCC[C@H]3c3ncco3)c3ccc(Cl)cc32)cc1` (stereo partly drawn) [Example 38, 3-(5-Azetidin-1-ylmethyl-2-methoxyphenyl)-6-chloro-1-(4-methoxybenzenesulfonyl)-3-((S)-2-oxazol-2-yl-pyrrolidin-1-yl)-1,3-dihydroindol-2-one], the Ki was in the range of 100 to 1000 nM.

Consider `CCOc1ccc(CNC(C)C)cc1C1(N2CCC[C@H]2c2ncco2)C(=O)N(S(=O)(=O)c2ccc(OC)cc2)c2ccc(Cl)cc21` (stereo partly drawn) [Example 205, 5-Chloro-3-[2-ethoxy-5-(isopropylaminomethyl)phenyl]-1-(4-methoxybenzenesulfonyl)-3-((S)-2-oxazol-2-yl-pyrrolidin-1-yl)-1,3-dihydroindol-2-one], for which the Ki was in the range of 10 to 100 nM.

The compound `COc1ccc(S(=O)(=O)N2C(=O)C(c3cc(CN4CCCC4)ccc3OC)(N3CCCC3c3nccs3)c3cc(Cl)ccc32)cc1` (centres unmarked) [Example 118, 5-Chloro-1-(4-methoxybenzenesulfonyl)-3-(2-methoxy-5-(pyrrolidin-1-ylmethyl)phenyl)-3-(2-thiazol-2-yl-pyrrolidin-1-yl)-1,3-dihydroindol-2-one] gave a Ki of 10 to 100 nM.

In the case of `COc1ccc(S(=O)(=O)N2C(=O)C(c3ccc(CN4CCCC4)cc3OC)(N3CCC[C@H]3c3ncco3)c3cc(C#N)ccc32)cc1` (stereo partly drawn) [Example 101, 5-Cyano-1-(4-methoxybenzenesulfonyl)-3-(2-methoxy-4-(pyrrolidin-1-ylmethyl)phenyl)-3-((S)-2-oxazol-2-yl-pyrrolidin-1-yl)-1,3-dihydroindol-2-one], the Ki was 10 to 100 nM.

`COc1ccc(S(=O)(=O)N2C(=O)C(c3cc(CN(C)C)cc4c3OCO4)(N3CCC[C@H]3c3ncco3)c3cc(Cl)ccc32)cc1` (stereo partly drawn) [Example 186, 5-Chloro-3-(6-dimethylaminomethylbenzo[1,3]dioxol-4-yl)-1-(4-methoxybenzenesulfonyl)-3-((S)-2-oxazol-2-yl-pyrrolidin-1-yl)-1,3-dihydroindol-2-one] gave an inhibition constant Ki of 10 to 100 nM.

In turn, `COc1ccc(S(=O)(=O)N2C(=O)C(c3ccc(CN4CCN(C)CC4)cc3OC)(N3CCC[C@H]3c3ncco3)c3cc(Cl)ccc32)cc1` (stereo partly drawn) [Example 23, 5-Chloro-1-(4-methoxybenzenesulfonyl)-3-[2-methoxy-4-(4-methylpiperazin-1-ylmethyl)phenyl]-3-((S)-2-oxazol-2-yl-pyrrolidin-1-yl)-1,3-dihydroindol-2-one] came in with a Ki of under 10 nM.

For `COc1ccc(S(=O)(=O)N2C(=O)C(c3cc(CN4CCNCC4)ccc3OC)(N3CCCC3c3nccs3)c3cc(Cl)ccc32)cc1` (centres unmarked) [Example 121, 5-Chloro-1-(4-methoxybenzenesulfonyl)-3-(2-methoxy-5-(piperazin-1-ylmethyl)phenyl)-3-(2-thiazol-2-yl-pyrrolidin-1-yl)-1,3-dihydroindol-2-one], the inhibition constant Ki was 10 to 100 nM.

As for `COc1ccc(S(=O)(=O)N2C(=O)C(c3ccc(CN4CCN(CCO)CC4)cc3OC)(N3CCC[C@H]3c3ncco3)c3cc(Cl)ccc32)cc1` (stereo partly drawn) [Example 127, 5-Chloro-3-{4-[4-(2-hydroxyethyl)piperazin-1-ylmethyl]-2-methoxyphenyl}-1-(4-methoxybenzenesulfonyl)-3-((S)-2-oxazol-2-yl-pyrrolidin-1-yl)-1,3-dihydroindol-2-one], the Ki is under 10 nM.

`COc1ccc(S(=O)(=O)N2C(=O)C(c3cc(CN(C)C)ccc3OC)(N3CCCC3c3nccs3)c3cc(Cl)ccc32)cc1` (centres unmarked) [Example 117, 5-Chloro-3-(5-dimethylaminomethyl-2-methoxyphenyl)-1-(4-methoxybenzenesulfonyl)-3-(2-thiazol-2-yl-pyrrolidin-1-yl)-1,3-dihydroindol-2-one]: the Ki lay in the range of 10 to 100 nM.

Consider `CNCc1ccc(C2(N3C[C@H](O)C[C@H]3c3ncco3)C(=O)N(S(=O)(=O)c3ccc(OC)cc3)c3ccc(Cl)cc32)c(OC)c1` (stereo partly drawn) [Example 217, 5-Chloro-3-((2S,4R)-4-hydroxy-2-oxazol-2-yl-pyrrolidin-1-yl)-1-(4-methoxybenzenesulfonyl)-3-(2-methoxy-4-methylaminomethylphenyl)-1,3-dihydroindol-2-one], for which the inhibition constant Ki is under 10 nM.

Take `COc1ccc(S(=O)(=O)N2C(=O)C(c3ccc(CN4CCN(C)CC4)cc3OC)(N3CCC[C@H]3c3ncco3)c3cc(Cl)c(F)cc32)cc1` (stereo partly drawn) [Example 201, 5-Chloro-6-fluoro-1-(4-methoxybenzenesulfonyl)-3-[2-methoxy-4-(4-methylpiperazin-1-ylmethyl)phenyl]-3-((S)-2-oxazol-2-yl-pyrrolidin-1-yl)-1,3-dihydroindol-2-one]: the Ki was under 10 nM.

In the case of `COc1cc(CN2CCN(CCO)CC2)ccc1C1(N2CCC[C@H]2c2ncco2)C(=O)N(S(=O)(=O)c2ccc(C#N)cc2)c2ccc(Cl)cc21` (stereo partly drawn) [Example 197, 5-Chloro-1-(4-cyanobenzenesulfonyl)-3-{4-[4-(2-hydroxyethyl)piperazin-1-ylmethyl]-2-methoxyphenyl}-3-((S)-2-oxazol-2-yl-pyrrolidin-1-yl)-2,3-dihydroindol-2-one], the Ki lay within 10 to 100 nM.

Turning to `COc1ccc(S(=O)(=O)N2C(=O)C(c3cc(CN4CCN(C)CC4)ccc3OC)(N3CCCC3c3ccccn3)c3cc(Cl)ccc32)cc1` (centres unmarked) [Example 124, 5-Chloro-1-(4-methoxybenzenesulfonyl)-3-[2-methoxy-5-(4-methylpiperazin-1-ylmethyl)phenyl]-3-(2-pyridin-2-yl-pyrrolidin-1-yl)-1,3-dihydroindol-2-one], the Ki was 10 to 100 nM.
